In data set [1] the target is T1, CETP (cholesteryl ester transfer protein) (Homo sapiens, UniProt P11597).
T1 sequence (P11597 18-493): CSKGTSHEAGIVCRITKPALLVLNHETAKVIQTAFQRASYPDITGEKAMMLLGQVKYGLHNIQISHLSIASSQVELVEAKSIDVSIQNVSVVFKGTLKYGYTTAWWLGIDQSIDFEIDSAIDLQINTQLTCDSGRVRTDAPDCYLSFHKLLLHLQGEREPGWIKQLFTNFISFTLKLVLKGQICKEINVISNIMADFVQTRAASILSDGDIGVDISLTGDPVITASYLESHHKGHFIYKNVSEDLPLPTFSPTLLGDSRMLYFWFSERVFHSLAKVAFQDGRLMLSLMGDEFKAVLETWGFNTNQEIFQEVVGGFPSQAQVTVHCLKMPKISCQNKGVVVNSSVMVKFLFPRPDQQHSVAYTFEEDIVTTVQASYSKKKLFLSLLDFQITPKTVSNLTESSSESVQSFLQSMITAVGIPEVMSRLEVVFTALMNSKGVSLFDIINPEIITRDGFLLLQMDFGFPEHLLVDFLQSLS
The experiment in a line: In vitro screening test: inhibitory effect on the activity of CETP (3H-cholesterol ester transfer from HDL to biotinylated LDL, SPA). The settings on record: incubation 24 hours at 37° C., relative to control (CETP+solvent). It counts as biochemical. The procedure:
Measurement of an inhibitory effect on the activity of CETP (cholesteryl ester transfer protein)
The measurement of the CETP activity is performed by measuring the transfer of ^3H-cholesterol ester from the HDLs to the biotinylated LDLs.
The transfer is measured after incubation for 24 hours in the presence of donor (HDL), acceptor (LDL) and CETP, with or without inhibitor. The reaction is stopped and the transfer measured by addition of SPA streptavidin beads (Amersham).
The increase in scintillation is proportional to the transfer of ^3H-cholesterol ester via CETP to the LDLs.
To perform the test, 10 μl of ^3H-cholesterol ester HDL, 10 μl of biotinylated LDL and 10 μl of HEPES buffer (50 mM HEPES/[…]/0.1% BSA/0.05% NaN3, pH 7.4) are mixed with 10 μl of CETP (1 mg/ml) and the test product (1 μl of the stock solution at 10 mM in DMSO) or 1 μl of DMSO alone in a 96-well microplate (Costar).
Screening is performed at a final concentration of 10 μM per well in 0.1% of solvent.
The plates are then covered with a film, shaken and incubated under a humid atmosphere at 37° C. for 24 hours.
200 μl of SPA-streptavidin beads solution (Amersham, TRKQ 7005) are added and the radioactivity reading is taken 1 hour later on a scintillation counter (Top Count, Packard) with a reading time of 0.5 minute.
The inhibition results are expressed relative to the control test (CETP+solvent).
The IC 50 values are determined and expressed in μM.

For orientation: IC50 means the concentration that inhibits the measured activity by half. A lower IC50 goes with greater potency in that assay. One may read the melting point as the temperature of the solid-liquid transition.

Regarding `O=C(Nc1ccc(Cl)c(Cl)c1)c1cc(C(F)(F)F)cc([N+](=O)[O-])c1N1CCCCC1` [Example 1, N-(3,4-Dichlorophenyl)-3-nitro-2-piperid-1-yl-5-trifluoromethylbenzamide], in data set [1], the midpoint of inhibition, the IC50, lay at 1.45 µM.
Compound `Nc1cc(C(F)(F)F)cc(C(=O)Nc2ccc(Cl)c(Cl)c2)c1N1CCCCC1` [Example 2, 3-Amino-N-(3,4-dichlorophenyl)-2-piperid-1-yl-5-trifluoromethylbenzamide] displayed an IC50 in data set [1] of 0.93 µM.
The compound `O=C(Nc1ccc(Cl)c(Cl)c1)c1cc(C(F)(F)F)cc(Br)c1N1CCCCC1` [Example 3, 3-Bromo-N-(3,4-dichlorophenyl)-2-piperid-1-yl-5-trifluoromethylbenzamide] registered a 50% inhibitory concentration (IC50) in data set [1] of 0.89 µM.
Compound `N#Cc1cc(C(F)(F)F)cc(C(=O)Nc2ccc(Cl)c(Cl)c2)c1N1CCCCC1` [Example 4, 3-Cyano-N-(3,4-dichlorophenyl)-2-piperid-1-yl-5-trifluoromethylbenzamide] had a melting point of 175 °C.
In data set [1], `CC1CCN(c2c(Cl)cc(C(F)(F)F)cc2C(=O)Nc2ccc(Cl)c(Cl)c2)CC1` [Example 6, 3-Chloro-N-(3,4-dichlorophenyl)-2-(4-methylpiperid-1-yl)-5-trifluoromethylbenzamide] registered an IC50 of 0.75 µM.

These data come from patent publication US7947675B2, “Trifluoromethylbenzamide derivatives and therapeutic uses thereof” (Merck Patent GmbH, priority 2005, dated 2011).
